One block for each molecule: values may come before it.
Test: solvent given as SMILES

SMILES: CN(C)c1ccc(C#Cc2ccccc2)cc1
fluorescence lifetime (in C1CCCCC1): 0.38 ns
fluorescence lifetime (in C1CCOC1): 0.589 ns
fluorescence lifetime (in C1COCCO1): 0.71 ns
fluorescence lifetime (in CC1CCCO1): 0.414 ns
fluorescence lifetime (in CC#N): 1.25 ns
fluorescence lifetime (in CC(C)=O): 1.83 ns
fluorescence lifetime (in CC(C)CC(C)(C)C): 0.35 ns
fluorescence lifetime (in CCCCCCCCCCCCCCCC): 0.43 ns
fluorescence lifetime (in CCCCCCCCCCCCCCCCCl): 0.66 ns
fluorescence lifetime (in CCOC(C)=O): 1.16 ns
fluorescence lifetime (in CCOCC): 0.411 ns
fluorescence lifetime (in CN(C)C=O): 1.24 ns
fluorescence lifetime (in CS(C)=O): 0.757 ns
fluorescence lifetime (in Cc1ccccc1): 0.58 ns

SMILES: CCCCCCCCCCOc1ccc(C#Cc2ccc(C#Cc3ccc(OCCCCCCCCCC)c(OCCCCCCCCCC)c3)c3nc4c5ccccc5c5ccccc5c4nc23)cc1OCCCCCCCCCC
fluorescence lifetime (in C1CCOC1): 8.24 ns
fluorescence lifetime (in Cc1ccccc1): 7.1 ns
fluorescence lifetime (in ClCCl): 8.66 ns

SMILES: O=CC12N=N[C@](C=O)(C3C4CCC(C4)C31)C1[C@@H]3CC[C@@H](C3)[C@H]12 (stereo not given in full)
fluorescence lifetime (in CC#N): 111 ns

SMILES: C(#Cc1cccc2cc(-c3ccccc3)c3cc(-c4cc[b-]5c(c4)c(-c4ccccc4)cc4cccc(C#Cc6ccccc6)[n+]54)cc[b-]3[n+]12)c1ccccc1
fluorescence lifetime (in C1CCCCC1): 2.4 ns

SMILES: CCCCCCC(CCCCCC)N1C(=O)c2cccc3c(-c4ccc(-c5ccc(OC)cc5)cc4)ccc(c23)C1=O
fluorescence lifetime (in CCCCCC): 1.35 ns
fluorescence lifetime (in CCCCCCCCCCCCCC): 1.43 ns
fluorescence lifetime (in CCCCCCCCCCCO): 3.21 ns
fluorescence lifetime (in CCCCO): 1.05 ns
fluorescence lifetime (in CN(C)C=O): 1.91 ns
fluorescence lifetime (in Cc1ccccc1): 1.4 ns
fluorescence lifetime (in ClC(Cl)Cl): 2.93 ns

SMILES: CCCCCCCCCCCCn1nnc(-c2ccc(C#Cc3ccc(C#Cc4ccc(-c5nnn(CCCCCCCCCCCC)n5)cc4)c4nc5c6ccccc6c6ccccc6c5nc34)cc2)n1
fluorescence lifetime (in C1CCOC1): 2.54 ns
fluorescence lifetime (in Cc1ccccc1): 3.55 ns
fluorescence lifetime (in ClCCl): 4.82 ns

SMILES: COc1ccc2c(c1)c1cc(OC)ccc1n2-c1cccc(-n2c3ccc(OC)cc3c3cc(OC)ccc32)c1C#N
fluorescence lifetime (in Cc1ccccc1): 13 ns
fluorescence lifetime (in O=P(c1ccccc1)(c1ccccc1)c1ccccc1Oc1ccccc1P(=O)(c1ccccc1)c1ccccc1): 12.8 ns

SMILES: c1ccc([B-]23NC(C4CCCCC4)=Nc4cccc([n+]42)N=C(C2CCCCC2)N3)cc1
fluorescence lifetime (in ClCCl): 4.6 ns

SMILES: CCN1\C(=C/C=C/C=C/C2=[N+](CC)c3ccc4cc(Br)ccc4c3C2(C)C)C(C)(C)c2c1ccc1cc(Br)ccc21
fluorescence lifetime (in C1CCOC1): 1.37 ns
fluorescence lifetime (in CC#N): 1.01 ns
fluorescence lifetime (in CC(C)=O): 1.12 ns
fluorescence lifetime (in CCO): 1.03 ns
fluorescence lifetime (in CN(C)C=O): 1.39 ns
fluorescence lifetime (in CO): 0.84 ns
fluorescence lifetime (in CS(C)=O): 1.5 ns
fluorescence lifetime (in ClCCl): 1.46 ns

SMILES: COc1ccc(/C=C/C=C/C=C/c2ccc([N+](=O)[O-])cc2)cc1
fluorescence lifetime (in C1CCOC1): 1.7 ns
fluorescence lifetime (in C1COCCO1): 1.9 ns
fluorescence lifetime (in CC1CCCCC1): 0.7 ns
fluorescence lifetime (in Cc1ccccc1): 1.5 ns

SMILES: N#Cc1cc(N2c3ccccc3Sc3ccccc32)c(N2c3ccccc3Sc3ccccc32)cc1C#N
fluorescence lifetime (in c1ccc2c(c1)c1ccccc1n2-c1ccc(-c2ccc(-n3c4ccccc4c4ccccc43)cc2)cc1): 48.2 ns

Other lines, results leading:

fluorescence lifetime (in C1CCCCC1): 8.64 ns
SMILES: c1cc2c3c(c1)OCCCCCCOc1cccc(c1-c1c4ccccc4c-3c3ccccc13)OCCCCCCO2

fluorescence lifetime (in C1CCOC1): 0.42 ns
SMILES: O=C1/C(=C2\Nc3cc4ccc5cccc6ccc(c3C2=O)c4c56)Nc2cc3ccc4cccc5ccc(c21)c3c45

fluorescence lifetime (in ClCCl): 1.65 ns
SMILES: CCCCn1c(-c2ccc(-c3nnc(-c4cccs4)o3)cc2)nc(-c2ccccc2)c1-c1ccccc1

fluorescence lifetime (in CC#N): 2.5 ns
SMILES: O=C(O)c1ccc(-c2nc(-c3ccccc3)c3c4ccccc4ccn23)cc1

fluorescence lifetime (in ClCCl): 4.52 ns
SMILES: F[B-]12Oc3ccccc3-c3c4[n+]5c(c([n+]31)-c1ccccc1O2)-c1ccccc1O[B-]5(F)Oc1ccccc1-4

fluorescence lifetime (in ClC(Cl)Cl): 3.05 ns
SMILES: CCC(CC)n1c2ccccc2c2cc3c(cc21)c1ccccc1n3C(CC)CC

fluorescence lifetime (in CC#N): 1.39 ns
fluorescence lifetime (in CCCCCC): 0.26 ns
fluorescence lifetime (in CO): 0.29 ns
fluorescence lifetime (in CS(C)=O): 0.51 ns
SMILES: c1ccc(-c2nc3c(c4c2-c2ccccc2CC4)-c2ccccc2CC3)cc1

fluorescence lifetime (in C1CCCCC1): 4.1 ns
fluorescence lifetime (in CC#N): 4.5 ns
fluorescence lifetime (in ClCCl): 5 ns
SMILES: c1ccc2c(-c3ccc4sc5ccccc5c4c3)c3ccccc3cc2c1

fluorescence lifetime (in ClC(Cl)Cl): 3.3 ns
SMILES: N#Cc1ccc(-c2cc(-c3ccc(N4CCCC4)cc3)nc(-c3ccccc3)n2)cc1

fluorescence lifetime (in c1cc(-c2cccc(-n3c4ccccc4c4ccccc43)c2)cc(-n2c3ccccc3c3ccccc32)c1): 58 ns
SMILES: CC1(C)c2ccccc2N(c2ccc3c(c2)c2cc(N4c5ccccc5C(C)(C)c5ccccc54)ccc2c2nc4ccccc4nc32)c2ccccc21

fluorescence lifetime (in C1CCCCC1): 140 ns
SMILES: Cc1cccc2ccccc12

fluorescence lifetime (in CC#N): 1.16 ns
SMILES: COc1cc2cc(C#Cc3ccc(/C=C(\C#N)C(=O)O)cc3)c(=O)oc2cc1OC

fluorescence lifetime (in ClC(Cl)Cl): 15 ns
SMILES: Cc1ccc(-n2c3ccccc3c3cc(-c4ccc5[n+](c4)[B-](F)(F)n4c-5nc5c6ccccc6c6ccccc6c54)ccc32)cc1

fluorescence lifetime (in C1CCCCC1): 0.064 ns
fluorescence lifetime (in CC#N): 0.376 ns
fluorescence lifetime (in CN(C)C=O): 0.194 ns
fluorescence lifetime (in CO): 0.148 ns
fluorescence lifetime (in CS(C)=O): 0.196 ns
fluorescence lifetime (in c1ccccc1): 0.201 ns
SMILES: COc1cc(/C=C/C(=O)CC(=O)/C=C/c2ccc(O)c(OC)c2)ccc1O

fluorescence lifetime (in CC#N): 5 ns
SMILES: Cc1ccc(C)n1-c1ccccc1
